Laboratory results published in US20240343747A1, “Heteroaryl compounds as inhibitors of TYK2, composition and application thereof” (Accro Bioscience (HK) Limited, priority 2021, published 2024).
Converted amounts (≈) assume the structure as drawn.

Experiments:
TYK2 = TYK2 (Mus musculus (Mouse), UniProt Q9R117); test: Luciferase assay in L929 ISRE cells stimulated with IFN-α; type: cell-based; details: IFN-α 100 ng/mL; for inhibition at 0.1 µM: 100 nM, read-out: Inhibitory activity % (100 nM); for inhibition at 1 µM: 1000 nM, read-out: Inhibitory activity % (1000 nM); for inhibition at 0.05 µM: 50 nM, read-out: Inhibitory activity % (50 nM); for inhibition at 0.2 µM: 200 nM, read-out: Inhibitory activity % (200 nM)
TYK2, sequence (Q9R117 whole entry): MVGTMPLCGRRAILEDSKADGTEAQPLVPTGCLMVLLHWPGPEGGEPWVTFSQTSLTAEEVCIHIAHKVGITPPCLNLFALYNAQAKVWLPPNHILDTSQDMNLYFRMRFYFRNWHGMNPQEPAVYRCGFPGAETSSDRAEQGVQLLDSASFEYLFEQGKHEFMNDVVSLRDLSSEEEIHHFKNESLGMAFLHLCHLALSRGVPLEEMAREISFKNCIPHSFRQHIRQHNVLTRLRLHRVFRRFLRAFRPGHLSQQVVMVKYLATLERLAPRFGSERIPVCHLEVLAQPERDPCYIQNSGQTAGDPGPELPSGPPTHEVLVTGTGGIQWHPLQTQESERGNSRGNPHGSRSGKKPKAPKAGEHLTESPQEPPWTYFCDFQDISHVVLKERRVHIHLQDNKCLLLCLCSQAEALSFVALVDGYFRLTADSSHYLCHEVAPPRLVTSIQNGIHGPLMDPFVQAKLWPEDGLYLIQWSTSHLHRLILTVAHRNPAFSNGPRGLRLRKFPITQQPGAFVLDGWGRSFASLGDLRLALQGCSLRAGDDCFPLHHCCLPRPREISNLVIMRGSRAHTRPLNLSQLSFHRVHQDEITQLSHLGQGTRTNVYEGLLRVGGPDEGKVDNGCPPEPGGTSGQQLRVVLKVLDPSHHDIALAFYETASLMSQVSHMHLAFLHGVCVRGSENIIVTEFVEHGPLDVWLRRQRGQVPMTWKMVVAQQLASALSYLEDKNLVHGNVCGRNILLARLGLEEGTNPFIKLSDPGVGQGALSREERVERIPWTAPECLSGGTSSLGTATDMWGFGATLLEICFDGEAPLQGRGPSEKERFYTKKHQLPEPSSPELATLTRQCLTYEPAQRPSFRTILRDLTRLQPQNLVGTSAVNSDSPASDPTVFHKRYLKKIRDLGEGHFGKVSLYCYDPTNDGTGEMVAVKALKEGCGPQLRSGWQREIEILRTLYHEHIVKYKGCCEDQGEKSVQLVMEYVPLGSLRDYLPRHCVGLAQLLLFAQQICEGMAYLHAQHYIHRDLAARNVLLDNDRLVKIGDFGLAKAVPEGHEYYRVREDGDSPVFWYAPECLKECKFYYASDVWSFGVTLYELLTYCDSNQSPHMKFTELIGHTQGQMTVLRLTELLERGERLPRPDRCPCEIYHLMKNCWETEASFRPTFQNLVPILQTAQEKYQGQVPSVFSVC
Experimental: • 1. L929 ISRE cells (5000 cells/well) were seeded on 96-well plates and incubated overnight at room temperature; • 2. The cells were pretreated by adding different concentrations (10 nM, 50 nM, 100 nM, 200 nM or 1000 nM) of the test compounds for 2 hours; • 3. Added IFN-α (100 ng/mL) to stimulate cells for 6 hours; • 4. Removed the upper medium, add PBS (100 μL) and washed, then removed PBS; • 5. Added PLB lysis solution (50 μL) to each well, shook the well for 15 minutes; • 6. Transferred PLB lysis solution (30 μL) to a new 96-well whiteboard, added LAR II reagent (LAR II), then quickly read the […]; • 7. Added Stop & Glo reagent (30 μL), then read the 450 nm OD value using the plate washer. • 8. The final results in Table 3 were the OD value in step 6/OD value in step 7.

Kinetic solubility test = type: physicochemical; details: for kinetic solubility (in words): conclusion from Table 6; for solubility kinetic at 2 h: phosphate buffer, aqueous buffer, kinetic from dmso stock, 50 mM PB pH 7.4
Experimental: • 1. 10 μL of test and control compounds (10 mM) in DMSO was added into lower chambers of Whatman mini-uniprep vials, respectively. • 2. Added 490 μL of 50 mM PB (pH 7.4) into lower chambers of the Whatman mini-uniprep vials, respectively. • 3. […] Shook the mini-uniprep vials on a Barnstead shaker for 2 hours at room temperature at the speed of 800 rpm. • 5. Centrifuged 20 minutes (e.g. 4000 rpm) • 6. Compressed mini-unipreps to prepare the filtrates for injection into UPLC system to calculate the concentration with standard curve.

[1] = Plasma protein binding test, human; type: in vitro ADME; details: for plasma protein binding (in words): conclusion from Table 7, all species tested; for fraction unbound at 4 h, 2 μM: human plasma
Experimental: (§1) • 1. Test compound and control compound were dissolved in dimethyl sulfoxide (DMSO) to achieve 10 mM stock solutions. DMSO working solutions were prepared at 400 μM. To prepare the loading matrix, compound working solutions (5 μL) were added in a 1:200 ratio to blank matrix (995 μL), and mixed thoroughly. • 2. To prepare the time zero (TO) samples to be used for recovery determination, 50 μL aliquots of loading matrix were transferred in triplicate to the sample collection plate. The samples were immediately matched with opposite blank buffer to obtain a final volume of 100 μL of 1:1 matrix/dialysis buffer (v/v) in each well. 500 μL of stop solution were added to these TO samples. They were then stored at 2-8° C. pending further processes along with other post-dialysis samples. • 3. To load the dialysis device, an aliquot of 150 μL of the loading matrix was transferred to the donor side of each dialysis well in triplicate, and 150 μL of the dialysis buffer was loaded to the receiver side of the well. The dialysis plate was placed in a humidified incubator at 37° C. with 5% CO2 on a shaking platform that rotated slowly (about 100 rpm) for 4 hours • 4. At the end of the dialysis, aliquots of 50 μL of samples were taken from both the buffer side and the matrix side of the dialysis device. These samples were transferred into new 96-well plates. Each sample was mixed with an equal volume of opposite blank matrix (buffer or matrix) to reach a final volume of 100 μL of 1:1 matrix/dialysis buffer (v/v) in each well. All samples were further processed by adding 500 μL of stop solution containing internal standards. The mixture was vortexed and centrifuged at 4000 rpm for about 20 minutes. An aliquot of 100 μL of supernatant of all the samples was then removed for LC-MS/MS analysis • 5. The single blank samples were prepared by transferring […] of blank matrix to a 96 well plate and adding 50 μL of blank PBS buffer to each well. The blank plasma must match the species of plasma used in the plasma side of the well. Then the matrix-matched samples were further processed by adding 500 μL of stop solution containing internal standards, following the same sample processing method as the dialysis samples.
The % Unbound and % Bound were calculated using the following equations:
% Unbound=100×[F]/[T]; % Bound=100−% Unbound
Where [F] is the analyte concentration or peak area ratio of analyte/internal standard on the buffer (receiver) side of the membrane, [T] is the analyte concentration or peak area ratio of analyte/internal standard on the matrix (donor) side of the membrane, and [T0] is the analyte concentration or the peak area ratio of analyte/internal standard in the loading matrix sample at time zero.

[2] = Plasma protein binding test, dog; type: in vitro ADME
Experimental: as §1, with “Then the matrix-matched samples were further processed by adding 500 μL of stop solution containing internal standards, following the same sample processing method as the dialysis samples.” left out
The % Unbound and % Bound were calculated using the following equations: […]

[3] = Pharmacokinetic evaluation in mice; type: in vivo; details: for plasma exposure and bioavailability in mice (in words): conclusion from Table 9; for AUC / Vd / clearance / half-life / Cmax / Tmax: male, mouse, plasma; for AUC / Vd / clearance / half-life / Cmax / Tmax / F: mice
Experimental: The mice pharmacokinetic characteristics of compounds were tested by standard protocols. The candidate compounds were made into clear solution for single intravenous injection (i.v.) and suspension for oral administration (p.o.). Intravenous vehicle is 5% DMSO+10% Solutol+85% Saline. Of which adjusts pH to 3 for B37. While oral vehicle is 0.5% CMCNa for B2 and B22, 5% DMSO+10% Solutol+85% Saline, PH˜3 for B37, 5% DMSO+10% Solutol+85% Saline for B41. The experiment used 6 male mice and 3 mice for intravenous at a dose of 2 mg/kg. Plasma samples were collected at 0 h (before dosing) and 0.083 h, 0.25 h, 0.5 h, 1 h, 2 h, 4 h, 8 h, 24 h after dosing. Another 3 mice were orally administrated with a dose of 10 mg/kg. Plasma samples were collected at 0 h (before dosing) and 0.25 h, 0.5 h, 1 h, 2 h, 4 h, 6 h, 8 h, 24 h after dosing.
Blood samples were placed in tubes containing K2-EDTA and stored on ice until centrifuged. The blood samples were centrifuged at 6800 g for 6 minutes at 2-8° C. within 1 h after collected, and stored frozen at approximately −80° C.
The analytical results were confirmed using quality control samples for intra-assay variation. The accuracy of >66.7% of the quality control samples and 50% of all QC samples at each concentration level were between 80-120% of the known value(s).
Standard set of parameters including area under the curve (AUC(0-t) and AUC(0-∞)), elimination half-live (T1/2), maximum plasma concentration (Cmax), time to reach maximum plasma concentration (Tmax) were calculated using noncompartmental analysis modules in FDA certified pharmacokinetic program Phoenix WinNonlin 7.0 (Pharsight, USA) by the Study Director.

inhibition at 0.01 µM (TYK2; 10 nM, read-out: Inhibitory activity % (10 nM)) | inhibition at 0.1 µM (TYK2) | inhibition at 1 µM (TYK2) | kinetic solubility (in words) (Kinetic solubility test) | solubility kinetic at 2 h (Kinetic solubility test) | plasma protein binding (in words) [1] | fraction unbound at 4 h, 2 μM [1] | fraction unbound at 4 h, 2 μM [2] | plasma exposure and bioavailability in mice (in words) [3] | AUC ([3]; iv, i.v. 2 mg/kg) | Vd ([3]; iv, i.v. 2 mg/kg) | clearance ([3]; iv, i.v. 2 mg/kg) | half-life ([3]; iv, i.v. 2 mg/kg) | AUC ([3]; po, p.o. 10 mg/kg) | Cmax ([3]; po, p.o. 10 mg/kg) | Tmax ([3]; po, p.o. 10 mg/kg) | F ([3]; p.o. 10 mg/kg) | inhibition at 0.05 µM (TYK2) | inhibition at 0.2 µM (TYK2) | Structure (SMILES)
45% | 58% | 94% | good | 52.4 µM (≈ 26 µg/mL) | moderate to high | 0.048 | 0.119 | good plasma exposure and bioavailability | 1940 ng·h/mL | 1.5 L/kg | 17.2 mL/min/kg | 60 min | 4140 ng·h/mL | 1180 ng/mL | 180 min | 43% |  |  | CCC(=O)c1cnc(NC(=O)C2CC2)cc1Nc1cccc(-c2cc(P(C)(C)=O)n(C)n2)c1OC [Compound B2, N-(4-((3-(5-(dimethylphosphoryl)-1-methyl-1H-pyrazol-3-yl)-2-methoxyphenyl)amino)-5-propionylpyridin-2-yl)cyclopropanecarboxamide]
 | 43% | 83% | good | 91.9 µM (≈ 45.8 µg/mL) | moderate to high | 0.051 | 0.156 | good plasma exposure and bioavailability | 1350 ng·h/mL | 3.1 L/kg | 25.4 mL/min/kg | 84 min | 6370 ng·h/mL | 2630 ng/mL | 19.8 min | 94% |  |  | [2H]C([2H])([2H])n1nc(-c2cccc(Nc3cc(NC(=O)C4CC4)ncc3C(=O)CC)c2OC)cc1P(C)(C)=O [Compound B22]
 |  | 97% |  |  |  |  |  | good plasma exposure and bioavailability | 2160 ng·h/mL | 0.84 L/kg | 15.5 mL/min/kg | 37.8 min | 8420 ng·h/mL | 4250 ng/mL | 25.2 min | 78% | 89% | 95% | CCC(=O)c1cnc(NC(=O)C2CC2)cc1Nc1cccc(-c2cc(P(=O)(C3CC3)C3CC3)n(C)n2)c1OC [Compound B37, N-(4-((3-(5-(dicyclopropylphosphoryl)-1-methyl-1H-pyrazol-3-yl)-2-methoxyphenyl)amino)-5-propionylpyridin-2-yl)cyclopropanecarboxamide]
 |  | 97% | low to moderate | 11.3 µM (≈ 6.24 µg/mL) | moderate to high | 0.084 | 0.019 | good plasma exposure and bioavailability | 2670 ng·h/mL | 1.2 L/kg | 12.7 mL/min/kg | 66 min | 11900 ng·h/mL | 6560 ng/mL | 30 min | 89% | 86% | 92% | [2H]C([2H])([2H])NC(=O)c1nnc(NC(=O)C2CC2)cc1Nc1cccc(-c2cc(P(=O)(C3CC3)C3CC3)n(C)n2)c1OC [Compound B41, 6-(cyclopropanecarboxamido)-4-((3-(5-(dicyclopropylphosphoryl)-1-methyl-1H-pyrazol-3-yl)-2-methoxyphenyl)amino)-N-(methyl-d3)pyridazine-3-carboxamide]
